{"source": "ChEMBL document CHEMBL3758102", "about": "“Serrulatane Diterpenoid from Eremophila neglecta Exhibits Bacterial Biofilm Dispersion and Inhibits Release of Pro-inflammatory Cytokines from Activated Macrophages” (J Nat Prod, 2015)", "key": {"BMDM [1]": {"system": "BMDM", "assay": "Inhibition of TNFalpha production in C57Bl/6 mouse BMDM cells at 40 to 80 uM pretreated prior to LPS-stimulation measured on day 7 by ELISA", "type": "functional, cell-based", "conditions": "C57BI/6"}, "BMDM [2]": {"system": "BMDM", "assay": "Increase in IL-1beta production in C57Bl/6 mouse BMDM cells at 2.5 to 80 uM pretreated for 1 hr prior to ATP-stimulation by ELISA", "type": "functional, cell-based", "conditions": "C57BI/6"}, "BMDM [3]": {"system": "BMDM", "assay": "Increase in IL-1beta production in C57Bl/6 mouse BMDM cells at 20 uM pretreated for 1 hr prior to ATP-stimulation by ELISA", "type": "functional, cell-based", "conditions": "C57BI/6"}, "Staphylococcus aureus [4]": {"system": "Staphylococcus aureus", "assay": "Antibacterial activity against Staphylococcus aureus ATCC 25923 incubated overnight by broth microdilution method", "type": "functional"}, "Staphylococcus aureus [5]": {"system": "Staphylococcus aureus", "assay": "Antibacterial activity against Staphylococcus aureus ATCC 35556 incubated overnight by broth microdilution method", "type": "functional"}, "[6]": {"system": "Staphylococcus epidermidis", "assay": "Antibiofilm activity against Staphylococcus epidermidis ATCC 35984 assessed as inhibition of 3 to 6 hrs pre-established biofilm formation at 0.064 umol/well after 20 hrs by safranin staining-based method", "type": "functional, organism-based"}, "[7]": {"system": "Staphylococcus epidermidis", "assay": "Antibiofilm activity against Staphylococcus epidermidis ATCC 35984 assessed as inhibition of 12 hrs pre-established biofilm formation at 0.064 umol/well after 20 hrs by safranin staining-based method", "type": "functional, organism-based"}, "[8]": {"system": "Staphylococcus epidermidis", "assay": "Antibiofilm activity against Staphylococcus epidermidis ATCC 35984 assessed as 3 hrs pre-established biofilm viable cell count after 20 hrs (reference value: 1 x 10^10 CFU/ml)", "type": "functional"}, "[9]": {"system": "Staphylococcus epidermidis", "assay": "Antibiofilm activity against Staphylococcus epidermidis ATCC 35984 assessed as reduction in 12 hrs pre-established biofilm viable cell count after 20 hrs (reference value: 1.2 x 10^10 CFU/ml)", "type": "functional"}, "[10]": {"system": "Staphylococcus epidermidis", "assay": "Antibiofilm activity against Staphylococcus epidermidis ATCC 35984 assessed as reduction in 24 hrs pre-established biofilm viable cell count after 20 hrs (reference value: 1.4 x 10^10 +/- 2.6 x 10^9 CFU/ml)", "type": "functional"}, "[11]": {"system": "Staphylococcus epidermidis", "assay": "Antibiofilm activity against Staphylococcus epidermidis ATCC 35984 assessed as inhibition of 24 hrs pre-established biofilm formation at 0.064 umol/well after 20 hrs by visible spectrometric analysis", "type": "functional, organism-based"}, "[12]": {"system": "Staphylococcus epidermidis", "assay": "Antibiofilm activity against Staphylococcus epidermidis ATCC 35984 assessed as induction of loosely attached live and dead bacteria in 12 hrs pre-established biofilm at 0.064 umol/well after 20 hrs by fluorescence staining-based confocal microscopic analysis", "type": "functional, organism-based"}, "[13]": {"system": "Staphylococcus epidermidis", "assay": "(§1) Antibiofilm activity against Staphylococcus epidermidis ATCC 35984 assessed as inhibition of 12 hrs pre-established biofilm formation after 20 hrs by safranin staining-based UV-visible spectroscopic analysis using compound impregnated in polypropylene mesh", "type": "functional, organism-based"}, "[14]": {"system": "Staphylococcus epidermidis", "assay": "(§2) Antibiofilm activity against Staphylococcus epidermidis ATCC 35984 assessed as inhibition of 12 hrs pre-established biofilm formation at 0.16 umol after 20 hrs by safranin staining-based UV-visible spectroscopic analysis using compound impregnated in polypropylene mesh", "type": "functional, organism-based"}, "[15]": {"system": "Staphylococcus epidermidis", "assay": "as §1, with “as” for “as inhibition of”, “viable cell count at 0.02 umol/mesh” for “formation”, “mesh (reference value: 8.6 x 10^9 CFU/ml)” for “mesh”", "type": "functional"}, "[16]": {"system": "Staphylococcus epidermidis", "assay": "as §2, with “as” for “as inhibition of”, “viable cell count” for “formation”, “umol/mesh” for “umol”, “mesh (reference value: 8.6 x 10^9 CFU/ml)” for “mesh”", "type": "functional"}, "[17]": {"system": "Staphylococcus epidermidis", "assay": "Antibiofilm activity against Staphylococcus epidermidis ATCC 35984 assessed as 12 hrs pre-established supernatant viable cell count at 0.01 umol/mesh after 20 hrs by […] using compound impregnated in polypropylene mesh (Rvb =7.7 x 10^8 CFU/ml)", "type": "functional"}, "[18]": {"system": "Staphylococcus epidermidis", "assay": "Antibiofilm activity against Staphylococcus epidermidis ATCC 35984 assessed as 12 hrs pre-established supernatant viable cell count at 0.08 umol/mesh after 20 hrs by […] using compound impregnated in polypropylene mesh (Rvb =7.7 x 10^8 CFU/ml)", "type": "functional"}, "[19]": {"system": "Staphylococcus epidermidis", "assay": "Antibiofilm activity against Staphylococcus epidermidis ATCC 35984 assessed as reduction in 12 hrs pre-established biofilm viable cell count at 0.16 umol after 20 hrs relative to control", "type": "functional"}, "[20]": {"assay": "Induction of apoptosis in C57Bl/6 mouse BMDM cells assessed as viable cells at 2.5 uM by annexin V-FITC/DAPI staining-based flow cytometric analysis (reference value: 46.7%)", "type": "functional", "conditions": "C57BI/6, BMDM, read-out: Activity"}, "[21]": {"assay": "Induction of apoptosis in C57Bl/6 mouse BMDM cells assessed as dead cells at 20 uM by annexin V-FITC/DAPI staining-based flow cytometric analysis (reference value: 24.4%)", "type": "functional, C57BI/6"}, "[22]": {"assay": "Induction of apoptosis in C57Bl/6 mouse BMDM cells assessed as late apoptotic cells at 20 uM by annexin V-FITC/DAPI staining-based flow cytometric analysis (reference value: 28.4%)", "type": "functional, C57BI/6"}, "[23]": {"assay": "Induction of apoptosis in C57Bl/6 mouse BMDM cells assessed as viable cells at 20 uM by annexin V-FITC/DAPI staining-based flow cytometric analysis (reference value: 46.7%)", "type": "functional", "conditions": "C57BI/6, BMDM, read-out: Activity"}, "[24]": {"assay": "Induction of apoptosis in C57Bl/6 mouse BMDM cells assessed as early apoptotic cells at 20 uM by annexin V-FITC/DAPI staining-based flow cytometric analysis (reference value: 0.49%)", "type": "functional, C57BI/6"}, "[25]": {"assay": "Induction of apoptosis in C57Bl/6 mouse BMDM cells assessed as late apoptotic cells at 40 uM by annexin V-FITC/DAPI staining-based flow cytometric analysis (reference value: 28.4%)", "type": "functional, C57BI/6"}, "[26]": {"assay": "Induction of apoptosis in C57Bl/6 mouse BMDM cells assessed as viable cells at 40 uM by annexin V-FITC/DAPI staining-based flow cytometric analysis (reference value: 46.7%)", "type": "functional", "conditions": "C57BI/6, BMDM, read-out: Activity"}, "[27]": {"assay": "Induction of apoptosis in C57Bl/6 mouse BMDM cells assessed as early apoptotic cells at 40 uM by annexin V-FITC/DAPI staining-based flow cytometric analysis (reference value: 0.49%)", "type": "functional, C57BI/6"}, "[28]": {"assay": "Induction of apoptosis in C57Bl/6 mouse BMDM cells assessed as dead cells at 80 uM by annexin V-FITC/DAPI staining-based flow cytometric analysis (reference value: 24.4%)", "type": "functional, C57BI/6"}, "[29]": {"assay": "Induction of apoptosis in C57Bl/6 mouse BMDM cells assessed as late apoptotic cells at 80 uM by annexin V-FITC/DAPI staining-based flow cytometric analysis (reference value: 28.4%)", "type": "functional, C57BI/6"}, "[30]": {"assay": "Induction of apoptosis in C57Bl/6 mouse BMDM cells assessed as viable cells at 80 uM by annexin V-FITC/DAPI staining-based flow cytometric analysis (reference value: 46.7%)", "type": "functional", "conditions": "C57BI/6, BMDM, read-out: Activity"}, "[31]": {"assay": "Induction of apoptosis in C57Bl/6 mouse BMDM cells assessed as early apoptotic cells at 80 uM by annexin V-FITC/DAPI staining-based flow cytometric analysis (reference value: 0.49%)", "type": "functional, C57BI/6"}, "[32]": {"assay": "Induction of apoptosis in C57Bl/6 mouse BMDM cells assessed as late apoptotic cells at 160 uM by annexin V-FITC/DAPI staining-based flow cytometric analysis (reference value: 28.4%)", "type": "functional, C57BI/6"}}, "note": "The source made the active and inactive calls. The calls are words filed in the database; no cut-off is given here.", "data": [{"smiles": "CC(C)=CCC[C@H](C)[C@@H]1CC[C@@H](C)c2c(O)cc(C(=O)O)cc21", "values": [{"measurement": "inhibition", "setting": "BMDM [1]", "result": "Active"}, {"measurement": "Activity", "setting": "BMDM [2]", "result": "inactive"}, {"measurement": "Activity", "setting": "BMDM [3]", "result": "inactive"}, {"measurement": "MBC", "setting": "Staphylococcus aureus [4]", "result": 82, "unit": "µM"}, {"measurement": "MIC", "setting": "Staphylococcus aureus [4]", "result": 41, "unit": "µM"}, {"measurement": "MBC", "setting": "Staphylococcus aureus [5]", "result": 41, "unit": "µM"}, {"measurement": "MIC", "setting": "Staphylococcus aureus [5]", "result": 41, "unit": "µM"}, {"measurement": "inhibition", "setting": "[6]", "result": "Active"}, {"measurement": "inhibition", "setting": "[7]", "result": "Active"}, {"measurement": "Activity", "setting": "[8]", "result": 0, "unit": "CFU/ml"}, {"measurement": "Activity", "setting": "[9]", "result": 7, "unit": "log10CFU/ml"}, {"measurement": "Activity", "setting": "[10]", "result": 2, "unit": "log10CFU/ml"}, {"measurement": "inhibition", "setting": "[11]", "result": "Active"}, {"measurement": "Activity", "setting": "[12]", "result": "Active"}, {"measurement": "inhibition", "setting": "[13]", "result": "Dose-dependent effect"}, {"measurement": "inhibition", "setting": "[14]", "result": "Active"}, {"measurement": "Activity", "setting": "[15]", "result": 9.1, "unit": "×10⁸ CFU/ml"}, {"measurement": "Activity", "setting": "[16]", "result": 3.9, "unit": "×10⁴ CFU/ml"}, {"measurement": "Activity", "setting": "[17]", "result": 3.4, "unit": "×10⁸ CFU/ml"}, {"measurement": "Activity", "setting": "[18]", "result": 4.4, "unit": "×10⁴ CFU/ml"}, {"measurement": "Activity", "setting": "[19]", "result": 5, "unit": "log10CFU/ml"}, {"measurement": "viability at 2.5 µM", "setting": "[20]", "result": 51.4, "unit": "%"}, {"measurement": "Activity", "setting": "[21]", "result": 6.76, "unit": "%"}, {"measurement": "Activity", "setting": "[22]", "result": 27, "unit": "%"}, {"measurement": "viability at 20 µM", "setting": "[23]", "result": 62.2, "unit": "%"}, {"measurement": "Activity", "setting": "[24]", "result": 4.05, "unit": "%"}, {"measurement": "Activity", "setting": "[25]", "result": 27.7, "unit": "%"}, {"measurement": "viability at 40 µM", "setting": "[26]", "result": 49.5, "unit": "%"}, {"measurement": "Activity", "setting": "[27]", "result": 0.99, "unit": "%"}, {"measurement": "Activity", "setting": "[28]", "result": 23.9, "unit": "%"}, {"measurement": "Activity", "setting": "[29]", "result": 44.4, "unit": "%"}, {"measurement": "viability at 80 µM", "setting": "[30]", "result": 31, "unit": "%"}, {"measurement": "Activity", "setting": "[31]", "result": 0.81, "unit": "%"}, {"measurement": "Activity", "setting": "[32]", "result": 3.88, "unit": "%"}]}]}
